In patent US10017827B2, “Herbicide-resistant sunflower plants with multiple herbicide resistant alleles of AHASL1 and methods of use” (BASF AGROCHEMICAL PRODUCTS B.V., priority 2007, dated 2018):
Where two headings read alike, the source gives them in different places. Marks after values point to notes of the source that are not given here.

Columns and labels:
[1] = test system: AHAS enzyme, WT line (B7); assay: Enzyme assay for AHAS activity, Sets 1 and 2; conditions: 100 μM imazamox
[2] = test system: sunflower line GM40 (A122T); type: in vivo; conditions: 160 gr/ha at V4, 14 DAT
[3] = test system: sunflower line L5 (BTK 47, WT susceptible); conditions: for biomass accumulation, % of untreated: L5, 14 DAT
[4] = test system: sunflower line L4 (A122T); assay: Greenhouse whole-plant response to imazapyr; type: in vivo; conditions: 14 DAT
Excerpt: (§1) Experiment was arranged as a randomized block design with a full factorial (sunflower line×treatment) arrangement of treatments and 10 replications.

[5] = test system: sunflower line L3 (cmsGM40, A122T); assay: Greenhouse whole-plant response to imazapyr; type: in vivo; conditions: 14 DAT
Excerpt: as §1

[6] = test system: A122T sunflower genotypes (mean of H2, L3, L4); assay: Greenhouse whole-plant response to imazapyr; type: in vivo; conditions: 14 DAT
Excerpt: as §1

[7] = test system: sunflower line L4 (A122T/A122T); assay: Greenhouse whole-plant response to metsulfuron; conditions: 14 DAT
sunflower line B770 (WT) = assay: Greenhouse whole-plant response to metsulfuron; conditions: 14 DAT
[8] = test system: sunflower line GM1606 (A122T/A122T); assay: Greenhouse whole-plant response to metsulfuron; conditions: 14 DAT
[9] = test system: sunflower hybrid cmsGM40xL4 (A122T/A122T); assay: Greenhouse whole-plant response to metsulfuron; conditions: 14 DAT
[10] = test system: sunflower line GM40 (A122T/A122T); assay: Greenhouse whole-plant response to metsulfuron; conditions: 14 DAT
[11] = test system: sunflower hybrid cmsGM40xBTSu-R1 (A122T/P197L); assay: Greenhouse whole-plant response to metsulfuron; conditions: 14 DAT
[12] = A122T mean (H2,L3,L4), 2x (160 g ai/ha)
[13] = A122T mean (H2,L3,L4), 3x (240 g ai/ha)

Which results are given for `COCc1cnc(C2=NC(C)(C(C)C)C(=O)N2)c(C(=O)O)c1` (stereo not shown) [imazamox]?
AHAS activity, % of untreated control ([1]; Set 1): 17%; AHAS activity, % of untreated control ([1]; Set 2): 11%

How did the “Mean Phytotoxicity Index (PI, 0-9)” value [2] turn out when `CC(C)C1(C)N=C(c2ncccc2C(=O)O)NC1=O` (stereo not shown) [imazapyr] was run?
Its value is 0.2.

And the “biomass accumulation, % of untreated” value ([3]; 1x (80 g ai/ha))?
The value was 15.0%.

What about the “biomass accumulation, % of untreated” value ([3]; 2x (160 g ai/ha)) of the same compound?
The value was 15.0%.

And the “biomass accumulation, % of untreated” value ([3]; 3x (240 g ai/ha))?
The value was 15.0%.

And the “biomass accumulation, % of untreated” value ([3]; 4x (320 g ai/ha))?
Its value is 15.0%.

And the “biomass accumulation, % of untreated” value ([3]; 5x (400 g ai/ha))?
Its value is 15.0%.

And the “biomass accumulation, % of untreated” value ([3]; 6x (480 g ai/ha))?
The value was 15.0%.

What about the “Phytotoxicity Index (0-9)” value ([3]; in vivo) of the same compound?
The value was 9.

And the “Phytotoxicity Index (0-9)” value ([4]; 0.5x (40 g ai/ha))?
The value was 0.0.

What about the “biomass accumulation, % of untreated” value ([4]; 0.5x (40 g ai/ha)) of the same compound?
Its value is 100.0%.

And the “plant height, % of untreated” value ([4]; 0.5x (40 g ai/ha))?
Its value is 100.0%.

And the “Phytotoxicity Index (0-9)” value ([4]; 1x (80 g ai/ha))?
Its value is 0.0.

And the “plant height, % of untreated” value ([4]; 1x (80 g ai/ha))?
Its value is 100.0%.

And the “Phytotoxicity Index (0-9)” value ([4]; 2x (160 g ai/ha))?
The value was 0.0.

And the “biomass accumulation, % of untreated” value ([4]; 2x (160 g ai/ha))?
The value was 97.0%.

And the “Phytotoxicity Index (0-9)” value ([4]; 3x (240 g ai/ha))?
The value was 0.0.

And the “plant height, % of untreated” value ([4]; 3x (240 g ai/ha))?
The value was 97.0%.

And the “Phytotoxicity Index (0-9)” value ([4]; 4x (320 g ai/ha))?
The value was 0.0.

What about the “Phytotoxicity Index (0-9)” value ([4]; 5x (400 g ai/ha)) of the same compound?
Its value is 0.0.

And the “Phytotoxicity Index (0-9)” value ([4]; 6x (480 g ai/ha))?
Its value is 0.5.

What about the “Phytotoxicity Index (0-9)” value ([5]; 0.5x (40 g ai/ha)) of the same compound?
The value was 0.4.

And the “Phytotoxicity Index (0-9)” value ([5]; 1x (80 g ai/ha))?
Its value is 0.4.

And the “Phytotoxicity Index (0-9)” value ([5]; 2x (160 g ai/ha))?
The value was 0.4.

What about the “plant height, % of untreated” value ([5]; 2x (160 g ai/ha)) of the same compound?
The value was 92.0%.

What about the “Phytotoxicity Index (0-9)” value ([5]; 3x (240 g ai/ha)) of the same compound?
Its value is 0.5.

And the “Phytotoxicity Index (0-9)” value ([5]; 4x (320 g ai/ha))?
Its value is 1.0.

What about the “biomass accumulation, % of untreated” value ([5]; 4x (320 g ai/ha)) of the same compound?
Its value is 75.0%.

What about the “Phytotoxicity Index (0-9)” value ([5]; 5x (400 g ai/ha)) of the same compound?
Its value is 2.0.

And the “Phytotoxicity Index (0-9)” value ([5]; 6x (480 g ai/ha))?
The value was 2.5.

And the “height reduction, % of untreated controls” value ([6]; A122T homozygous, 0.5x)?
The value was 0.1%.

What about the “height reduction, % of untreated controls” value ([6]; A122T homozygous, 6x) of the same compound?
Its value is 18.8%.

And the “reduction in biomass weight” value ([6]; A122T homozygous, higher dose (6x))?
The value was 25%.

What about the “Phytotoxicity Index (0-9)” value ([6]; A122T mean (H2,L3,L4), 0.5x (40 g ai/ha)) of the same compound?
Its value is 0.3.

What about the “Phytotoxicity Index (0-9)” value ([6]; A122T mean (H2,L3,L4), 1x (80 g ai/ha)) of the same compound?
The value was 0.3.

What about the “Phytotoxicity Index (0-9)” value [6, 12] of the same compound?
The value was 0.3.

And the “plant height, % of untreated” value [6, 12]?
Its value is 98.0%.

And the “Phytotoxicity Index (0-9)” value [6, 13]?
Its value is 0.3.

What about the “biomass accumulation, % of untreated” value [6, 13] of the same compound?
The value was 90.0** %.

And the “Phytotoxicity Index (0-9)” value ([6]; A122T mean (H2,L3,L4), 4x (320 g ai/ha))?
The value was 0.5.

What about the “Phytotoxicity Index (0-9)” value ([6]; A122T mean (H2,L3,L4), 5x (400 g ai/ha)) of the same compound?
Its value is 0.8.

What about the “Phytotoxicity Index (0-9)” value ([6]; A122T mean (H2,L3,L4), 6x (480 g ai/ha)) of the same compound?
Its value is 1.2.

How did the “Dry Matter accumulation (DMA)” value ([7]; 1X (5 g ai./ha)) turn out when `COC(=O)c1ccccc1S(=O)(=O)NC(=O)Nc1nc(C)nc(OC)n1` [metsulfuron] was run?
The value was 25.40^ab.

What about the “Mean Height Reduction (PH)” value ([7]; 1X (5 g ai./ha)) of the same compound?
Its value is 19.47^a.

And the “Phytotoxicity Index (PI, 0-9)” value ([7]; 1X (5 g ai./ha))?
Its value is 8.25^b.

What about the “Dry Matter accumulation (DMA)” value ([7]; 2X (10 g ai./ha)) of the same compound?
The value was 18.80^a.

What about the “Mean Height Reduction (PH)” value ([7]; 2X (10 g ai./ha)) of the same compound?
The value was 18.73^a.

And the “Phytotoxicity Index (PI, 0-9)” value ([7]; 2X (10 g ai./ha))?
The value was 8.5^c.

And the “Dry Matter accumulation (DMA)” value (sunflower line B770 (WT); 1X (5 g ai./ha))?
The value was 28.43^b.

And the “Mean Height Reduction (PH)” value (sunflower line B770 (WT); 1X (5 g ai./ha))?
Its value is 21.73^a*.

What about the “Phytotoxicity Index (PI, 0-9)” value (sunflower line B770 (WT); 1X (5 g ai./ha)) of the same compound?
Its value is 8.50^bc.

What about the “Dry Matter accumulation (DMA)” value (sunflower line B770 (WT); 2X (10 g ai./ha)) of the same compound?
Its value is 28.77^b.

And the “Mean Height Reduction (PH)” value (sunflower line B770 (WT); 2X (10 g ai./ha))?
Its value is 18.20^a.

What about the “Phytotoxicity Index (PI, 0-9)” value (sunflower line B770 (WT); 2X (10 g ai./ha)) of the same compound?
The value was 9.00^d.

And the “Dry Matter accumulation (DMA)” value ([8]; 1X (5 g ai./ha))?
Its value is 30.39^b.

And the “Mean Height Reduction (PH)” value ([8]; 1X (5 g ai./ha))?
Its value is 21.55^a.

What about the “Phytotoxicity Index (PI, 0-9)” value ([8]; 1X (5 g ai./ha)) of the same compound?
The value was 8.70^d.

What about the “Dry Matter accumulation (DMA)” value ([8]; 2X (10 g ai./ha)) of the same compound?
Its value is 20.45^a.

What about the “Mean Height Reduction (PH)” value ([8]; 2X (10 g ai./ha)) of the same compound?
Its value is 21.70^a.

And the “Phytotoxicity Index (PI, 0-9)” value ([8]; 2X (10 g ai./ha))?
The value was 9.00^d.

What about the “Dry Matter accumulation (DMA)” value ([9]; 1X (5 g ai./ha)) of the same compound?
The value was 19.90^a.

What about the “Mean Height Reduction (PH)” value ([9]; 1X (5 g ai./ha)) of the same compound?
The value was 22.45^a.

What about the “Phytotoxicity Index (PI, 0-9)” value ([9]; 1X (5 g ai./ha)) of the same compound?
Its value is 8.67^d.

What about the “Dry Matter accumulation (DMA)” value ([9]; 2X (10 g ai./ha)) of the same compound?
Its value is 18.23^a.

And the “Mean Height Reduction (PH)” value ([9]; 2X (10 g ai./ha))?
Its value is 20.56^a.

And the “Phytotoxicity Index (PI, 0-9)” value ([9]; 2X (10 g ai./ha))?
The value was 8.82^cd.

What about the “Dry Matter accumulation (DMA)” value ([10]; 1X (5 g ai./ha)) of the same compound?
Its value is 25.73^ab.

And the “Mean Height Reduction (PH)” value ([10]; 1X (5 g ai./ha))?
Its value is 21.39^a.

And the “Phytotoxicity Index (PI, 0-9)” value ([10]; 1X (5 g ai./ha))?
The value was 9.00^d.

What about the “Dry Matter accumulation (DMA)” value ([10]; 2X (10 g ai./ha)) of the same compound?
Its value is 20.69^a.

What about the “Mean Height Reduction (PH)” value ([10]; 2X (10 g ai./ha)) of the same compound?
Its value is 21.17^a.

What about the “Phytotoxicity Index (PI, 0-9)” value ([10]; 2X (10 g ai./ha)) of the same compound?
Its value is 9.00^d.

What about the “Mean Height Reduction (PH)” value ([11]; 1X (5 g ai./ha)) of the same compound?
Its value is 77.04^b.

What about the “Phytotoxicity Index (PI, 0-9)” value ([11]; 1X (5 g ai./ha)) of the same compound?
Its value is 0.00^a.

And the “Dry Matter accumulation (DMA)” value ([11]; 2X (10 g ai./ha))?
The value was 72.66^c.
